# ChEMBL document CHEMBL3885881, “DrugMatrix”
# Species: Rattus norvegicus
# Experiment: DrugMatrix - Regimen: Daily Repeat
# Assay type: toxicity, organism-based, Sprague-Dawley
# Parameters: regimen Daily Repeat, gender Male, age 6-8 weeks
# Conditions: in vivo, po, route oral GAVAGE, […]; for ABSOLUTE BASOPHIL / ABSOLUTE EOSINOPHIL / ABSOLUTE LYMPHOCYTE / ABSOLUTE MONOCYTE / ABSOLUTE SEGMENTED NEUTROPHIL / BASOPHIL / EOSINOPHIL / ERYTHROCYTE COUNT / HEMATOCRIT / HEMOGLOBIN / LEUKOCYTE COUNT / LYMPHOCYTE / MEAN CORPUSCULAR HEMOGLOBIN / MEAN CORPUSCULAR HEMOGLOBIN CONCENTRATION / MONOCYTE / NEUTROPHIL / NUCLEATED RED BLOOD CELLS / PLATELET COUNT: tissue Blood; for ALANINE AMINOTRANSFERASE / ALBUMIN / ALKALINE PHOSPHATASE / ASPARTATE AMINOTRANSFERASE / BLOOD UREA NITROGEN / CARBON DIOXIDE / CHLORIDE / CHOLESTEROL / CREATINE PHOSPHOKINASE / CREATININE / GLUCOSE / LACTATE DEHYDROGENASE / LIPASE / PHOSPHORUS / POTASSIUM / SODIUM / TOTAL BILIRUBIN / TOTAL PROTEIN / URIC ACID: tissue Plasma
# [1] = 0 mg/kg, 72 h, dose level Control, time 3 day
# [2] = 0 mg/kg, 120 h, dose level Control, time 5 day
# [3] = 54 mg/kg, 72 h, dose level Low, time 3 day
# [4] = 54 mg/kg, 120 h, dose level Low, time 5 day
smiles,measurement,setting,value
CC(C)Cc1ccc(C(C)C(=O)O)cc1 (configuration not stated) [IBUPROFEN],ABSOLUTE BASOPHIL,[1],0 CELLS/uL
same,ABSOLUTE EOSINOPHIL,[1],0 CELLS/uL
same,ABSOLUTE LYMPHOCYTE,[1],7601 CELLS/uL
same,ABSOLUTE MONOCYTE,[1],354.33 CELLS/uL
same,ABSOLUTE SEGMENTED NEUTROPHIL,[1],744.67 CELLS/uL
same,BASOPHIL,[1],0%
same,EOSINOPHIL,[1],0%
same,ERYTHROCYTE COUNT,[1],5.03 x10E6/uL
same,HEMATOCRIT,[1],33.7%
same,HEMOGLOBIN,[1],13.43 G/DL
same,LEUKOCYTE COUNT,[1],8.7 x10E3/uL
same,LYMPHOCYTE,[1],86.33%
same,MEAN CORPUSCULAR HEMOGLOBIN,[1],26.7 pg
same,MEAN CORPUSCULAR HEMOGLOBIN CONCENTRATION,[1],39.83 G/DL
same,MONOCYTE,[1],4.67%
same,NEUTROPHIL,[1],9%
same,NUCLEATED RED BLOOD CELLS,[1],0 /100WBC
same,PLATELET COUNT,[1],1151 x10E3/uL
same,ALANINE AMINOTRANSFERASE,[1],97.67 u/L
same,ALBUMIN,[1],4.07 G/DL
same,ALKALINE PHOSPHATASE,[1],607.67 u/L
same,ASPARTATE AMINOTRANSFERASE,[1],101 u/L
same,BLOOD UREA NITROGEN,[1],13.33 mg/dL
same,CARBON DIOXIDE,[1],36 mmol/L
same,CHLORIDE,[1],99.67 MEQ/L
same,CHOLESTEROL,[1],75.67 mg/dL
same,CREATINE PHOSPHOKINASE,[1],279.67 u/L
same,CREATININE,[1],0.16 mg/dL
same,GLUCOSE,[1],164 mg/dL
same,LACTATE DEHYDROGENASE,[1],115 u/L
same,LIPASE,[1],12.67 u/L
same,PHOSPHORUS,[1],8.77 mg/dL
same,POTASSIUM,[1],5.79 MEQ/L
same,SODIUM,[1],142.83 MEQ/L
same,TOTAL BILIRUBIN,[1],0.27 mg/dL
same,TOTAL PROTEIN,[1],5.8 G/DL
same,URIC ACID,[1],0.67 mg/dL
same,ABSOLUTE BASOPHIL,[2],0 CELLS/uL
same,ABSOLUTE EOSINOPHIL,[2],0 CELLS/uL
same,ABSOLUTE LYMPHOCYTE,[2],4426.33 CELLS/uL
same,ABSOLUTE MONOCYTE,[2],102.67 CELLS/uL
same,ABSOLUTE SEGMENTED NEUTROPHIL,[2],337.67 CELLS/uL
same,BASOPHIL,[2],0%
same,EOSINOPHIL,[2],0%
same,ERYTHROCYTE COUNT,[2],5.31 x10E6/uL
same,HEMATOCRIT,[2],32.5%
same,HEMOGLOBIN,[2],13.17 G/DL
same,LEUKOCYTE COUNT,[2],4.87 x10E3/uL
same,LYMPHOCYTE,[2],90.33%
same,MEAN CORPUSCULAR HEMOGLOBIN,[2],24.93 pg
same,MEAN CORPUSCULAR HEMOGLOBIN CONCENTRATION,[2],40.67 G/DL
same,MONOCYTE,[2],2.33%
same,NEUTROPHIL,[2],7.33%
same,NUCLEATED RED BLOOD CELLS,[2],0.33 /100WBC
same,PLATELET COUNT,[2],848.33 x10E3/uL
same,ALANINE AMINOTRANSFERASE,[2],59.67 u/L
same,ALBUMIN,[2],3.87 G/DL
same,ALKALINE PHOSPHATASE,[2],452 u/L
same,ASPARTATE AMINOTRANSFERASE,[2],81.33 u/L
same,BLOOD UREA NITROGEN,[2],13.67 mg/dL
same,CARBON DIOXIDE,[2],26.33 mmol/L
same,CHLORIDE,[2],103.67 MEQ/L
same,CHOLESTEROL,[2],65.67 mg/dL
same,CREATINE PHOSPHOKINASE,[2],355.33 u/L
same,CREATININE,[2],0.14 mg/dL
same,GLUCOSE,[2],171.33 mg/dL
same,LACTATE DEHYDROGENASE,[2],118 u/L
same,LIPASE,[2],11.33 u/L
same,PHOSPHORUS,[2],11.13 mg/dL
same,POTASSIUM,[2],5.18 MEQ/L
same,SODIUM,[2],143.17 MEQ/L
same,TOTAL BILIRUBIN,[2],0.2 mg/dL
same,TOTAL PROTEIN,[2],5.87 G/DL
same,URIC ACID,[2],0.63 mg/dL
same,ABSOLUTE BASOPHIL,[3],0 CELLS/uL
same,ABSOLUTE EOSINOPHIL,[3],0 CELLS/uL
same,ABSOLUTE LYMPHOCYTE,[3],9143 CELLS/uL
same,ABSOLUTE MONOCYTE,[3],146.33 CELLS/uL
same,ABSOLUTE SEGMENTED NEUTROPHIL,[3],1110.67 CELLS/uL
same,BASOPHIL,[3],0%
same,EOSINOPHIL,[3],0%
same,ERYTHROCYTE COUNT,[3],5.12 x10E6/uL
same,HEMATOCRIT,[3],32.67%
same,HEMOGLOBIN,[3],12.97 G/DL
same,LEUKOCYTE COUNT,[3],10.4 x10E3/uL
same,LYMPHOCYTE,[3],88%
same,MEAN CORPUSCULAR HEMOGLOBIN,[3],25.37 pg
same,MEAN CORPUSCULAR HEMOGLOBIN CONCENTRATION,[3],39.7 G/DL
same,MONOCYTE,[3],1.33%
same,NEUTROPHIL,[3],10.67%
same,NUCLEATED RED BLOOD CELLS,[3],0 /100WBC
same,PLATELET COUNT,[3],1145.67 x10E3/uL
same,ALANINE AMINOTRANSFERASE,[3],89.33 u/L
same,ALBUMIN,[3],4 G/DL
same,ALKALINE PHOSPHATASE,[3],470.33 u/L
same,ASPARTATE AMINOTRANSFERASE,[3],89.33 u/L
same,BLOOD UREA NITROGEN,[3],14.33 mg/dL
same,CARBON DIOXIDE,[3],40.33 mmol/L
same,CHLORIDE,[3],98 MEQ/L
same,CHOLESTEROL,[3],76.67 mg/dL
same,CREATINE PHOSPHOKINASE,[3],208.67 u/L
same,CREATININE,[3],0.13 mg/dL
same,GLUCOSE,[3],160.67 mg/dL
same,LACTATE DEHYDROGENASE,[3],55 u/L
same,LIPASE,[3],10.67 u/L
same,PHOSPHORUS,[3],9.53 mg/dL
same,POTASSIUM,[3],5.26 MEQ/L
same,SODIUM,[3],143.43 MEQ/L
same,TOTAL BILIRUBIN,[3],0.2 mg/dL
same,TOTAL PROTEIN,[3],5.9 G/DL
same,URIC ACID,[3],0.37 mg/dL
same,ABSOLUTE BASOPHIL,[4],0 CELLS/uL
same,ABSOLUTE EOSINOPHIL,[4],0 CELLS/uL
same,ABSOLUTE LYMPHOCYTE,[4],9058.67 CELLS/uL
same,ABSOLUTE MONOCYTE,[4],185 CELLS/uL
same,ABSOLUTE SEGMENTED NEUTROPHIL,[4],289.67 CELLS/uL
same,BASOPHIL,[4],0%
same,EOSINOPHIL,[4],0%
same,ERYTHROCYTE COUNT,[4],5.22 x10E6/uL
same,HEMATOCRIT,[4],32.87%
same,HEMOGLOBIN,[4],13 G/DL
same,LEUKOCYTE COUNT,[4],9.53 x10E3/uL
same,LYMPHOCYTE,[4],95.33%
same,MEAN CORPUSCULAR HEMOGLOBIN,[4],24.87 pg
same,MEAN CORPUSCULAR HEMOGLOBIN CONCENTRATION,[4],39.57 G/DL
same,MONOCYTE,[4],1.67%
same,NEUTROPHIL,[4],3%
same,NUCLEATED RED BLOOD CELLS,[4],0 /100WBC
same,PLATELET COUNT,[4],1110.33 x10E3/uL
same,ALANINE AMINOTRANSFERASE,[4],65.67 u/L
same,ALBUMIN,[4],3.9 G/DL
same,ALKALINE PHOSPHATASE,[4],301 u/L
same,ASPARTATE AMINOTRANSFERASE,[4],84.67 u/L
same,BLOOD UREA NITROGEN,[4],12.67 mg/dL
same,CARBON DIOXIDE,[4],28.67 mmol/L
same,CHLORIDE,[4],103.67 MEQ/L
same,CHOLESTEROL,[4],69.67 mg/dL
same,CREATINE PHOSPHOKINASE,[4],213.67 u/L
same,CREATININE,[4],0.23 mg/dL
same,GLUCOSE,[4],164 mg/dL
same,LIPASE,[4],11 u/L
same,PHOSPHORUS,[4],11.1 mg/dL
same,POTASSIUM,[4],5.49 MEQ/L
same,SODIUM,[4],144.2 MEQ/L
same,TOTAL BILIRUBIN,[4],0.13 mg/dL
same,TOTAL PROTEIN,[4],5.87 G/DL
same,URIC ACID,[4],0.57 mg/dL
